# Assay results reported in patent US9255088B2, “Premature-termination-codons readthrough compounds” (The Regents of the University of California, priority 2010, dated 2016).
# Entries after “also recorded” stand apart in the source; their conditions may differ.
# What was measured:
# [1] = system: ATMs1981 autophosphorylation in AT153LA cells (TGA); test: Flow cytometry ATMs1981 autophosphorylation (FC-ATM) in AT153LA cells; type: cell-based, human; set-up: FC-ATM (Delta-FI, 30 μM): unit not given here; settings: for FCATMs1981: summary of positive results; on FCATMs1981: key: the positive results on various assays are also summarized and labeled as '+'
# Procedure: FC-SMC1 assay was performed as recently described (Nahas et al., 2009). FC-ATM-Ser1981 assay was based on Honda's assay (Honda et al., 2009, Leukemia. 23:409-414) with modifications. In brief, cells were resuspended in PBS and radiated for 10 Gy. After 1 h, the cells were fixed and permeabilized using the FIX & PERM cell permeabilization kit (Invitrogen). The cells were then incubated with 1 μl of mouse ATM-Ser1981 antibody (Cell Signaling Technology) for 2 h at room temperature. Cells were washed and resuspended in 100 μl PBS with Alexa Fluor 488 anti-mouse IgG (Invitrogen) for 45 min. Cells were next washed and resuspended in PBS with 0.2% paraformaldehyde and analyzed using a FACSCalibur (BD).
# Studies on readthrough activity of RTC#13 derivatives as measured by FC-ATMS 1981 were performed according to the procedures provided in Example 1.
# These two series, 7 and 9, were tested for readthrough activity using an assay in which the ATM protein kinase activity was measured using a flow cytometry-based ATMs1981 autophosphorylation assay (FC-ATM) (Nahas, S. A; et al., Clin. Chem. 2009, 55, 463-72). […] An increased Delta-FI indicates the restoration of ATM kinase activity by a compound.
# (§1) These two series, 13 and 15, were again tested for readthrough activity using the assay in which the ATM protein kinase activity was measured by functional flow cytometry (FC-ATM) (Table 4 and FIG. 12). A second assay, irradiation (1R)-induced ATMs1981 nuclear foci formation (IRIF-ATM), was also used to confirm the readthrough activity of these compounds (Table 4 and FIG. 13). Table 3 summarizes the data for the analogues 13 and 15 (at 30 μM), in which the groups R, R′, and X were varied. More detailed data are reported in FIG. 5 (for FC-ATM assay), and in FIG. 6 (for IRIF-ATM assay). […] Thus, the pyrimidinedione unit serves as a good structural replacement for the 2-imino and 2-thioxo thiazolidin-4-one units.
# [2] = system: plasmid-TAT51: ATM region 5 fragment with nonsense (PTC) mutation c.5623C→T (TGA C); test: PTT-ELISA readthrough assay, plasmid-TAT51 (TGA C); settings: summary of positive results; plasmid not stated
# [3] = cited from earlier work
# [4] = system: ATM-Ser1981 foci in AT153LA cells (TGA A); test: Irradiation-induced ATM-Ser1981 foci (IRIF) in AT153LA cells; on IRIF (ATMs1981): key: the positive results on various assays are also summarized and labeled as '+'; type: cell-based, human; settings: for IR-induced ATMs1981 foci formation, readthrough activity: A-T153LA cells (TGA), FIG. 13; for IRIF-ATM (%) (30 μM): Table 4, IR-induced ATMs1981 nuclear foci formation; for IRIF (ATMs1981): summary of positive results
# Procedure: To evaluate the function of RTC-induced ATM protein, we measured irradiation-induced foci (IRIF) formation of ATM-Ser1981 in the same ATI53LA cells (TGA A). […] The maximum IRIF induction achieved in A-T cells by 10 μM RTC#13 was ˜40% of wild-type level. As a positive readthrough control, 144 μM of G418 (100 μg/ml) was used to treat cells. Our previous studies had shown that, at this concentration, […] induced a maximum level of ATMs1981 IRIF (Lai et al., 2004).
# Immunostaining of nuclear foci of ATM-Ser1981 was performed as previously reported (Du et al., 2007). In brief, after being treated with compound for 4 d, cells were irradiated with 2 Gy and incubated at 37° C. for 30 min. The cells were dropped onto coverslips, fixed with 4% paraformaldehyde, and permeabilized. Coverslips were blocked for 1 h and incubated with mouse anti-ATM pSer1981 for 1 h (1:500; Rockland Immunochemicals, Inc). After a second blocking, cells were stained with FITC-conjugated anti-mouse IgG (1:150; Jackson ImmunoResearch Laboratories) for 1 h and mounted onto slides.
# Studies on IR-induced ATMs1981 foci formation by RTC#13 and derivatives 13a, 13b, 13d, 13e, 13f, 13g, 13h, 13i, 13j, and 13k in A-T153LA cells (TGA) were performed according to the procedures provided in Example 1.
# as §1
# [5] = system: dystrophin in mdx myotubes (TAA); test: Dystrophin expression in mdx myotubes; type: cell-based, mouse; settings: FIG. 21
# Procedure: To investigate the ability of RTC#13 and #14 to readthrough a PTC mutation in genes other than ATM, we used mdx myotubes. The mdx mouse has been widely used as a model for Duchenne muscular dystrophy. It carries a C to T transition in exon 23 of the dystrophin gene that creates a premature stop codon (TAA), resulting in an absence of dystrophin protein (Sicinski, et al., 1989, Science. 244:1578-1580). […] Muscle progenitor cells isolated from mdx mice were induced to differentiate for 24 h before addition of gentamicin or compounds RTC#13 and #14. Myotube cultures were exposed to compounds for 72 h and then analyzed for dystrophin by Western blotting. […] We next used immunoprecipitation to increase the sensitivity of the assay (FIG. 8). […] Results were consistent in multiple experiments performed.
# Cells were prepared and treated with RTCs for 3 d. Dystrophin proteins were detected by Western blot analysis using immunoprecipitation. Wild-type cells were used in the experiment to localize dystrophin protein. Gentamicin was used as a positive readthrough control. […] Results were consistent in three independent experiments.
# Cells were derived from limb muscle of neonatal mdx and C57 mice, as previously described (Bertoni and Rando, 2002, Hum. Gene Ther. 13:707-718). For growth, cells were plated on dishes coated with 5 µg/ml laminin (Invitrogen) and maintained in growth medium consisting of Ham's F10 nutrient mixture (Mediatech, Inc.) supplemented with 20% fetal bovine serum, penicillin, and streptomycin. Cell differentiation was induced by maintaining the cells in low serum medium (differentiation medium) consisting of DME supplemented with 2% horse serum, penicillin, and streptomycin. Myoblasts were plated in wells of 6-well dishes and were allowed to differentiate for 24 h before adding the compounds. Media was replaced every 24 h with fresh differentiation media containing the compounds. Cells were lysed 96 h after induction of differentiation (72 h after addition of the compounds). Total protein was determined and dystrophin immunoblot analysis was performed as previously described (Sicinski et al., 1989). 250 μg of total protein from each sample was immunoprecipitated using a monoclonal antibody directed toward the rod domain (MANDYS—8; 1:40; Sigma-Aldrich) of the dystrophin protein and detected by Western blotting (Barton-Davis et al., 1999, J. Clin. Invest. 104:375-381; Bertoni and Rando, 2002).
# Muscle cells were induced to differentiate to allow the formation of myotubes and synthesis of dystrophin mRNA. Compounds were added 24 hrs after induction of differentiation by direct addition into the media. The media was replaced every 24 hrs with fresh differentiation media containing the appropriate concentration of compounds. Myotubes were harvested 72 hrs later (96 hrs after induction of differentiation) and analyzed for dystrophin expression by immunoblot analysis (FIG. 14).
# Cultures were analyzed for dystrophin expression by immunohistochemistry.
# In the experiments shown in FIG. 21, the activity of two of the analogs of RTC#13 termed RTC#BZ6 and RTC#BZ16 was investigated in myotube cultures isolated from mdx mice. Compounds were added to the differentiation media 24 hrs after induction of differentiation and replaced every 24 hrs by changing the media with new fresh media containing the appropriate concentration of RTC#13, RTC#BZ6 or RTC#BZ16. […] No dystrophin expression was detected in cells treated with vehicle only at a final concentration of 10 μM.
# [6] = Table 2, compounds 7, 30 µM, change in fluorescence intensity before and after ionizing radiation
# [7] = Table 4, compounds 13 and 15, 30 μM
SMILES,"FC-ATM (Delta-FI, 30 μM) [1, 6]",FCATMs1981 [1],PTT-ELISA [2],other results
"O=C1NC(=S)S/C1=C\c1ccc(-c2ccccc2F)o1 [Compound 7n, (Z)-5-((5-(2-fluorophenyl)furan-2-yl)methylene)-2-thioxothiazolidin-4-one]",2.86,+,+,–
"O=C1NC(=S)S/C1=C\c1ccc(-c2ccccc2[N+](=O)[O-])o1 [Compound 7b, (Z)-5-((5-(2-nitrophenyl)furan-2-yl)methylene)-2-thioxothiazolidin-4-one]",negative,–,+,–
"N=C1NC(=O)/C(=C/c2ccc(-c3ccccc3C(F)(F)F)o2)S1 [Compound 7d, (Z)-2-imino-5-((5-(2-(trifluoromethyl)phenyl)furan-2-yl)methylene)thiazolidin-4-one]",negative,–,+,–
O=C(O)c1cccc(-c2noc(-c3ccccc3F)n2)c1 [PTC124],–,–,–,tolerability ([3]; phase-I clinical study in cystic fibrosis): generally well tolerated; readthrough activity compared with aminoglycosides ([3]; phase-I clinical study): more efficient readthrough activity than aminoglycosides
"N=C1NC(=O)/C(=C/c2ccc(-c3ccccc3)o2)S1 [Compound 7a, (Z)-2-imino-5-((5-phenylfuran-2-yl)methylene)thiazolidin-4-one]",negative,–,+,–
"N=C1NC(=O)/C(=C/c2ccc(-c3ccccc3Cl)o2)S1 [Compound 7f, (Z)-5-((5-(2-chlorophenyl)furan-2-yl)methylene)-2-iminothiazolidin-4-one]",negative,–,+,–
"O=c1ccn(Cc2ccc(-c3ccccc3[N+](=O)[O-])o2)c(=O)[nH]1 [Compound 13a, 1-((5-(2-nitrophenyl)furan-2-yl)methyl)pyrimidine-2,4(1H,3H)-dione]",–,+,–,"IR-induced ATMs1981 foci formation, readthrough activity [4]: statistically significant readthrough activity; IRIF-ATM (%) (30 μM) [4]: 10.67%; FC-ATM (Delta-FI, 30 μM) [1, 7]: 4.94; concentration giving the highest level of readthrough activity [5]: 5 µM; dystrophin expression in mdx myotube cultures [5]: effective"
"COc1ccccc1-c1ccc(/C=C2\SC(=N)NC2=O)o1 [Compound 7e, (Z)-2-imino-5-((5-(2-methoxyphenyl)furan-2-yl)methylene)thiazolidin-4-one]",negative,–,+,–
"O=C1NC(=S)S/C1=C\c1ccc(-c2cccc(F)c2)o1 [Compound 7q, (Z)-5-((5-(3-fluorophenyl)furan-2-yl)methylene)-2-thioxothiazolidin-4-one]",3.44,+,+,FC-ATM readthrough activity [1]: the best of this group
"O=C1NC(=S)S/C1=C\c1ccc(-c2ccccc2Cl)o1 [Compound 7m, (Z)-5-((5-(2-chlorophenyl)furan-2-yl)methylene)-2-thioxothiazolidin-4-one]",3.55,+,+,FC-ATM readthrough activity [1]: the best of this group
"N=C1NC(=O)/C(=C/c2c[nH]c(=O)[nH]c2=O)S1 [Compound 13k, (Z)-5-((2-imino-4-oxothiazolidin-5-ylidene)methyl)pyrimidine-2,4(1H,3H)-dione]",–,+,–,"IR-induced ATMs1981 foci formation, readthrough activity [4]: statistically significant readthrough activity; also recorded: good activity; IRIF-ATM (%) (30 μM) [4]: 17%; IRIF (ATMs1981) [4]: +; FC-ATM readthrough activity [1]: good activity; FC-ATM (Delta-FI, 30 μM) [1, 7]: 5.32; dystrophin expression in mdx myotube cultures [5]: levels of dystrophin expression comparable to that achieved using the parent compound RTC#13"
"N=C1NC(=O)/C(=C/c2ccc(-c3cccc(F)c3)o2)S1 [Compound 7j, (Z)-5-((5-(3-fluorophenyl)furan-2-yl)methylene)-2-iminothiazolidin-4-one]",negative,–,+,–
"Cc1cn(Cc2ccc(-c3ccccc3)o2)c(=O)[nH]c1=O [Compound 13f, 5-methyl-1-((5-phenylfuran-2-yl)methyl)pyrimidine-2,4(1H,3H)-dione]",–,+,–,"IR-induced ATMs1981 foci formation, readthrough activity [4]: statistically significant readthrough activity; IRIF-ATM (%) (30 μM) [4]: 22.75%; IRIF (ATMs1981) [4]: +; FC-ATM (Delta-FI, 30 μM) [1, 7]: 3.80"
